# Experiments:
# [1] = system: nymphs and the female ticks of the Ixodus ricinu species; experiment: Tick repellency of IR3535 (test results received from Entostudio laboratory, Italy); conditions: in vivo
# [2] = system: Ixodes Ricinus (male, female and nymphs); experiment: Tick repellent testing (treated cylinder/stick and human volunteer's forearm); format: in vivo; conditions: stick test, FIG. 4
# [3] = system: Ixodes larvae, nymph forms and adults (female and male); experiment: Field testing, treated tick sheet dragging; format: in vivo; conditions: treated cotton sheet dragged 35 x 10 m; 5% vanillin in all FA and HFA solutions; vs commercial product Punkkiassa (19% IR3535)
# Description: Tick-dragging method was adopted to study the effectiveness of the product in repelling ticks in their natural habitat in Ruissalo, Turku. A square of 1 m^2 cotton sheet was divided in three parallel divisions and the borders were marked with pencil: 100*45 cm division on both sides (A and B) and a 100*10 cm neutral strip in the middle (N). Both A and B were both treated with a solution from a solution test pair (or left untreated for control drags) from that side of the sheet that would face the ground during dragging. The neutral zone was always left untreated. The evenly sprayed solution was let settle on the sheet for ˜15 minutes before the first drag. The sheet was dragged for 10 m with the treated side down with moderate pace in an even, tick-friendly biotope. After every 10 meter drag, the treated side was inspected for Ixodes larvae, nymph forms and adults (female and male). Number of individuals in every (4) form per department (A, B or N) was counted. Every test pair/sheet was dragged 35 times during the same day between 08:00 AM and 02:00 PM. No new solution was added to the sheet during the day. The time of start for every draw was checked. We tested different product types for field studies like FA (5, 10, 20%) and HFA (10 & 20%) and also included a commercial tick repellent (Punkkiassa) as a positive control. […]
# Aedes albopictus = experiment: Mosquito repellent testing on human forearm in test cage (ASTM E951-83); format: in vivo; conditions: text summary of Table 4
# Procedure: The mosquitos used in this study were Aedes albopictus. Mosquito repellent activity of the tested samples (listed in Table 2) was assessed by using the test cage as described by Songkro et al (2012), in the American Society for Testing and Materials (ASTM) standard […]-83 Laboratory testing of non-commercial mosquito repellent composition on the skin. The sample was tested on human subject. The same volunteers tested all the formulations under laboratory conditions. According to the method described by Coucci and Müller (2018), 50 adult female Aedes albopictus mosquitoes were transferred into the mosquito proof enclosed cage with the help of aspirator tube. The compositions to be tested were applied to the forearm ([…]) of the volunteers. The applied hand was introduced into the cage and the number of bites was recorded. After every 30 minutes the volunteer hands were subjected to the cage for 5 minutes and the numbers of mosquito bites were noted. Same procedure was implemented for control. Control study is done by placing the forearm in cage without application of tested sample. Before starting each replication, the mosquitoes' propensity to bite is assessed by inserting an untreated forearm into the cage. […] According to this procedure different compositions were tested by applying on the forearm with fresh mosquitoes every time of testing.
SMILES,repellency of nymphs and female ticks [1],tick repellent activity (in words) [2],repellency of nymphs in field test (FIG. 5) [3],mosquito repellent activity (in words) (Aedes albopictus)
"CCCCN(CCC(=O)OCC)C(C)=O [IR3535, 3-[N-butyl-N-acetyl]-aminopropionic acid, ethyl ester]",does not repel the nymphs and the female ticks,–,–,–
C=C1CC[C@H]2O[C@]2(C)CC[C@@H]2[C@@H]1CC2(C)C [Caryophyllene oxide],–,not very effective,–,–
"CC(=O)CCCC(C)CCCC(C)CCCC(C)C (stereo not drawn) [HFA, 6,10,14-trimethyl-pentadecanone]",–,–,repelled nymphs very effectively compared to the commercial product,efficient repellent activity
"CC(=O)CC/C=C(\C)CC/C=C(\C)CCC=C(C)C [FA, Farnesyl acetone]",–,–,repelled nymphs very effectively compared to the commercial product,efficient repellent activity
